Data reported in PMC6891762, “Novel Isoxazolidine and γ-Lactam Analogues of Homonucleosides” (Molecules, 2019).

Tests used:
Assay type in all cases: cell-based
[1] = system: hTERT RPE-1 normal retina (non-cancerous) cells; assay: Cytostatic activity, normal retina cells; conditions: concentration causing 50% decrease in cell proliferation
Protocol: (§1) The 50% cytostatic inhibitory concentration (IC50) causing a 50% decrease in cell proliferation was determined for all isolated isoxazolidines 14 and γ-lactams 15 toward nine cancerous cell lines (Capan-1 (pancreatic adenocarcinoma), Hap1 (chronic myeloid leukemia), HCT-116 (colorectal carcinoma), NCI-H460 (lung carcinoma), DND-41 (acute lymphoblastic leukemia), HL-60 (acute myeloid leukemia), K-562 (chronic myeloid leukemia), MM.1S (multiple myeloma) and Z-138 (non-Hodgkin lymphoma)) and normal retina (non-cancerous) cells (hTERT RPE-1). Docetaxel, etoposide and stauroporine were used as the reference compounds.
(§2) All assays were performed in 96-well microtiter plates. To each well was added (5−7.5) × 10^4 tumor cells and a given amount of the test compound. The cells were allowed to proliferate at 37 °C in a humidified, CO2-controlled atmosphere. At the end of the incubation period, the cells were counted in a Coulter counter. The IC50 (50% inhibitory concentration) was defined as the concentration of the compound that inhibited cell proliferation by 50%.

[2] = system: Capan-1 (pancreatic adenocarcinoma) cells; assay: Cytostatic activity, Capan-1
Protocol: as §1, with “RPE-1).” for “RPE-1). Docetaxel, etoposide and stauroporine were used as the reference compounds.”
as §2, with “counter.” for “counter. The IC50 (50% inhibitory concentration) was defined as the concentration of the compound that inhibited cell proliferation by 50%.”

[3] = system: Hap1 (chronic myeloid leukemia) cells; assay: Cytostatic activity, Hap1; conditions: concentration causing 50% decrease in cell proliferation
Protocol: as §1, §2

[4] = system: HCT-116 (colorectal carcinoma) cells; assay: Cytostatic activity, HCT-116; conditions: concentration causing 50% decrease in cell proliferation
Protocol: as §1, §2

[5] = system: NCI-H460 (lung carcinoma) cells; assay: Cytostatic activity, NCI-H460; conditions: concentration causing 50% decrease in cell proliferation
Protocol: as §1, §2

[6] = Homo sapiens, CAPAN-1, concentration causing 50% decrease in cell proliferation
[7] = concentration causing 50% decrease in cell proliferation

| Compound | IC50 ([1]; hTERT-RPE1) | IC50 [2, 6] | IC50 ([3]; Homo sapiens, HAP1) | IC50 ([4]; Homo sapiens, HCT-116) | IC50 ([5]; Homo sapiens, NCI-H460) | IC50 [1] | IC50 [2, 7] | IC50 [3] | IC50 [4] | IC50 [5] | IC50 (µM) HCT-116 Colorectal Carcinoma [4] |
| --- | --- | --- | --- | --- | --- | --- | --- | --- | --- | --- | --- |
| COC(=O)[C@@H]1C[C@H](Cn2ccc(=O)[nH]c2=O)N(C)O1 (relative stereo) [cis-14a, Methyl cis-3-{[2,4-dioxo-3,4–dihydropyrimidin-1(2H)-yl]methyl}-2-methylisoxazolidine-5-carboxylate] | > 100 µM | 54.8 µM | > 100 µM | > 100 µM | > 100 µM | – | – | – | – | – | – |
| COC(=O)[C@@H]1C[C@H](Cn2cc(C)c(=O)[nH]c2=O)N(C)O1 (relative stereo) [cis-14b, Methyl cis-2-methyl-3-{[5-methyl-2,4-dioxo-3,4–dihydropyrimidin-1(2H)-yl]methyl}isoxazolidine-5-carboxylate] | > 100 µM | 55.2 µM | 63 µM | > 100 µM | 60.3 µM | – | – | – | – | – | – |
| COC(=O)[C@@H]1C[C@H](Cn2cc(F)c(=O)[nH]c2=O)N(C)O1 (relative stereo) [cis-14c, Methyl cis-3-{[5-fluoro-2,4-dioxo-3,4–dihydropyrimidin-1(2H)-yl]metyl}-2-methylisoxazolidine-5-carboxylate] | – | – | – | – | – | > 100 µM | > 100 µM | > 100 µM | > 100 µM | > 100 µM | – |
| COC(=O)[C@@H]1C[C@H](Cn2cc(Br)c(=O)[nH]c2=O)N(C)O1 (relative stereo) [cis-14d, Methyl cis-3-{[5-bromo-2,4-dioxo-3,4–dihydropyrimidin-1(2H)-yl]metyl}-2-methylisoxazolidine-5-carboxylate] | – | – | – | – | – | > 100 µM | 95 µM | > 100 µM | 86.4 µM | 62.3 µM | – |
| COC(=O)[C@@H]1C[C@H](Cn2cc(Cl)c(=O)[nH]c2=O)N(C)O1 (relative stereo) [cis-14e, Methyl cis-3-{[5-chloro-2,4-dioxo-3,4–dihydropyrimidin-1(2H)-yl]metyl}-2-methylisoxazolidine-5-carboxylate] | – | – | – | – | – | > 100 µM | 51.2 µM | 44.2 µM | 26.7 µM | 48.8 µM | – |
| COC(=O)[C@@H]1C[C@H](Cn2cc(I)c(=O)[nH]c2=O)N(C)O1 (relative stereo) [cis-14f, Methyl cis-3-{[5-iodo-2,4-dioxo-3,4–dihydropyrimidin-1(2H)-yl]metyl}-2-methylisoxazolidine-5-carboxylate] | – | – | – | – | – | – | 42 µM | 40.9 µM | 57.9 µM | 44.6 µM | – |
| COC(=O)[C@@H]1C[C@H](Cn2cnc3c(=O)n(C)c(=O)n(C)c32)N(C)O1 (relative stereo) [cis-14h, Methyl cis-3-[(1,3-dimethyl-2,6-dioxo-1,2,3,6-tetrahydro-9H-purin-9-yl)methyl]-2-methylisoxazolidine-5-carboxylate] | > 100 µM | 62.2 µM | 45.1 µM | 49 µM | 33.2 µM | – | – | – | – | – | – |
| CN1C(=O)[C@H](O)C[C@@H]1Cn1cc(Cl)c(=O)[nH]c1=O (relative stereo) [cis-15e, cis-5-Chloro-1-[(4-hydroxy-1-methyl-5-oxopyrrolidin-2-yl)methyl]pyrimidine-2,4(1H,3H)-dione] | > 100 µM | 28 µM | 51.5 µM | 58.5 µM | 28.6 µM | – | – | – | – | – | inhibited the proliferation |
| CN1C(=O)[C@H](O)C[C@@H]1Cn1cnc2c(=O)n(C)c(=O)n(C)c21 (relative stereo) [cis-15h, cis-9-[(4-Hydroxy-1-methyl-5-oxopyrrolidin-2-yl)methyl]-1,3-dimethyl-3,9–dihydro-1H-purine-2,6-dione] | > 100 µM | 18.2 µM | 50.2 µM | 43.5 µM | 42.5 µM | – | 21.5 µM | – | – | – | – |
| COC(=O)[C@H]1C[C@H](Cn2ccc(=O)[nH]c2=O)N(C)O1 (relative stereo) [trans-14a, Methyl trans-3-{[2,4-dioxo-3,4–dihydropyrimidin-1(2H)-yl]methyl}-2-methylisoxazolidine-5-carboxylate] | > 100 µM | 62.6 µM | > 100 µM | > 100 µM | 90.3 µM | – | – | – | – | – | – |
| COC(=O)[C@H]1C[C@H](Cn2cc(C)c(=O)[nH]c2=O)N(C)O1 (relative stereo) [trans-14b, Methyl trans-2-methyl-3-{[5-methyl-2,4-dioxo-3,4–dihydropyrimidin-1(2H)-yl]methyl}isoxazolidine-5-carboxylate] | > 100 µM | 51.3 µM | > 100 µM | > 100 µM | > 100 µM | – | – | – | – | – | – |
| COC(=O)[C@H]1C[C@H](Cn2cc(F)c(=O)[nH]c2=O)N(C)O1 (relative stereo) [trans-14c, Methyl trans-3-{[5-fluoro-2,4-dioxo-3,4–dihydropyrimidin-1(2H)-yl]metyl}-2-methylisoxazolidine-5-carboxylate] | – | – | – | – | – | > 100 µM | 49 µM | > 100 µM | > 100 µM | > 100 µM | – |
| COC(=O)[C@H]1C[C@H](Cn2cc(Br)c(=O)[nH]c2=O)N(C)O1 (relative stereo) [trans-14d, Methyl trans-3-{[5-bromo-2,4-dioxo-3,4–dihydropyrimidin-1(2H)-yl]metyl}-2-methylisoxazolidine-5-carboxylate] | – | – | – | – | – | > 100 µM | 67.8 µM | > 100 µM | > 100 µM | 76.1 µM | – |
| COC(=O)[C@H]1C[C@H](Cn2cc(Cl)c(=O)[nH]c2=O)N(C)O1 (relative stereo) [trans-14e, Methyl trans-3-{[5-chloro-2,4-dioxo-3,4–dihydropyrimidin-1(2H)-yl]metyl}-2-methylisoxazolidine-5-carboxylate] | – | – | – | – | – | > 100 µM | 38.5 µM | 42.7 µM | 43.5 µM | 41.9 µM | – |
| COC(=O)[C@H]1C[C@H](Cn2cc(I)c(=O)[nH]c2=O)N(C)O1 (relative stereo) [trans-14f, Methyl trans-3-{[5-iodo-2,4-dioxo-3,4–dihydropyrimidin-1(2H)-yl]metyl}-2-methylisoxazolidine-5-carboxylate] | – | – | – | – | – | > 100 µM | 41.4 µM | 47 µM | 53.5 µM | 41.1 µM | – |
| COC(=O)[C@H]1C[C@H](CN2CCC(=O)NC2=O)N(C)O1 (relative stereo) [trans-14g, Methyl trans-3-{[2,4-dioxotetrahydropyrimidin-1(2H)-yl]metyl}-2-methylisoxazolidine-5-carboxylate] | – | – | – | – | – | > 100 µM | 38.3 µM | 58.1 µM | 61 µM | 48.6 µM | – |
| COC(=O)[C@H]1C[C@H](Cn2cnc3c(=O)n(C)c(=O)n(C)c32)N(C)O1 (relative stereo) [trans-14h, Methyl trans-3-[(1,3-dimethyl-2,6-dioxo-1,2,3,6-tetrahydro-9H-purin-9-yl)methyl]-2-methylisoxazolidine-5-carboxylate] | > 100 µM | 43.2 µM | 53.6 µM | 60.9 µM | 51.2 µM | – | – | – | – | – | – |
| Cc1cn(C[C@H]2C[C@H](O)C(=O)N2C)c(=O)[nH]c1=O (relative stereo) [trans-15b, trans-1-[(4-Hydroxy-1-methyl-5-oxopyrrolidin-2-yl)methyl]-5-methylpyrimidine-2,4(1H,3H)-dione] | > 100 µM | 49.2 µM | 86.5 µM | 53.3 µM | 55.6 µM | – | – | – | – | – | – |
| CN1C(=O)[C@@H](O)C[C@@H]1Cn1cc(Br)c(=O)[nH]c1=O (relative stereo) [trans-15d, trans-5-Bromo-1-[(4-hydroxy-1-methyl-5-oxopyrrolidin-2-yl)methyl]pyrimidine-2,4(1H,3H)-dione] | > 100 µM | 24.8 µM | 58.5 µM | > 100 µM | 42.1 µM | – | – | – | – | – | – |
| CN1C(=O)[C@@H](O)C[C@@H]1Cn1cc(Cl)c(=O)[nH]c1=O (relative stereo) [trans-15e, trans-5-Chloro-1-[(4-hydroxy-1-methyl-5-oxopyrrolidin-2-yl)methyl]pyrimidine-2,4(1H,3H)-dione] | > 100 µM | 21.5 µM | 54.5 µM | > 100 µM | 47.7 µM | – | 18.2 µM | – | – | – | – |
| CN[C@@H]1C[C@H]2O[C@@](C)([C@@H]1OC)n1c3ccccc3c3c4c(c5c6ccccc6n2c5c31)C(=O)NC4 [Stauroporine, reference compound] | – | – | – | – | – | 0.25 µM | – | 3.55 µM | 0.09 µM | 11.5 µM | – |
